Reference: PubChem BioAssay AID192 (DTP/NCI, 2004)
Several values for one entry are separate records, joined by “and”; a condition that tells them apart may be missing. Equal values may be shown once. Toxic doses and inconclusive results are not listed. How the source made its calls: active means survival T/C of 150% or more; inactive means T/C below 125% in these data.

Test system: BDF1 mice, B16 melanoma ip, median survival T/C
Test: NCI In Vivo Anticancer Drug Screen. Data for tumor model B16 Melanoma (intraperitoneal) in B6D2F1 (BDF1) mice
Conditions: endpoint: median survival time, higher = longer survival
Procedure, shortened: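 In this screen, activity was judged from survival or tumor size in treated versus vehicle-treated tumor-bearing mice, reported as T/C.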

[1] = dose: 50.0 mg/kg/injection, schedule: Q01DX009 (ip), vehicle: saline with Tween-80
[2] = dose: 50.0 mg/kg/injection, schedule: Q04DX003 (ip), vehicle: saline with Tween-80
[3] = dose: 100.0 mg/kg/injection, schedule: Q01DX009 (ip), vehicle: saline with Tween-80
[4] = dose: 6.25 mg/kg/injection, schedule: Q01DX009 (ip), vehicle: saline with Tween-80
[5] = dose: 12.5 mg/kg/injection, schedule: Q01DX009 (ip), vehicle: saline with Tween-80
[6] = dose: 25.0 mg/kg/injection, schedule: Q01DX009 (ip), vehicle: saline with Tween-80
[7] = dose: 200.0 mg/kg/injection, schedule: Q01DX009 (ip), vehicle: saline
[8] = dose: 25.0 mg/kg/injection, schedule: Q01DX009 (ip), vehicle: Klucel (hydroxypropylcellulose) (HPC)
[9] = dose: 50.0 mg/kg/injection, schedule: Q01DX009 (ip), vehicle: Klucel (hydroxypropylcellulose) (HPC)
[10] = dose: 100.0 mg/kg/injection, schedule: Q01DX009 (ip), vehicle: Klucel (hydroxypropylcellulose) (HPC)
[11] = dose: 3.13 mg/kg/injection, schedule: Q01DX009 (ip), vehicle: saline with Tween-80
[12] = dose: 5.0 mg/kg/injection, schedule: Q01DX009 (ip), vehicle: saline with Tween-80
[13] = dose: 10.0 mg/kg/injection, schedule: Q01DX009 (ip), vehicle: saline with Tween-80

Measured: T/C

CC(C)(c1ccccc1)c1ccc(O)cc1
inactive: dose: 37.5 mg/kg/injection, schedule: Q01DX009 (ip), vehicle: other 97 % of control | dose: 75.0 mg/kg/injection, schedule: Q01DX009 (ip), vehicle: other 100 % of control | dose: 150.0 mg/kg/injection, schedule: Q01DX009 (ip), vehicle: other 94 % of control | dose: 150.0 mg/kg/injection, schedule: Q04DX003 (ip), vehicle: saline + alcohol 90 % of control | dose: 300.0 mg/kg/injection, schedule: Q01DX009 (ip), vehicle: other 94 % of control | dose: 300.0 mg/kg/injection, schedule: Q04DX003 (ip), vehicle: saline + alcohol 104 % of control | dose: 600.0 mg/kg/injection, schedule: Q04DX003 (ip), vehicle: saline + alcohol 95 % of control

CCOC(=O)C(=CN(C(C)C)C(C)C)C(=O)OCC
inactive: [1] 117 % of control | [2] 108 % of control | [3] 111 % of control | dose: 100.0 mg/kg/injection, schedule: Q04DX003 (ip), vehicle: saline with Tween-80 108 % of control | dose: 200.0 mg/kg/injection, schedule: Q04DX003 (ip), vehicle: saline with Tween-80 108 % of control

CCN(CC)CC#N
inactive: dose: 1.0 mg/kg/injection, schedule: Q01DX009 (ip), vehicle: saline 94 % of control | dose: 2.0 mg/kg/injection, schedule: Q01DX009 (ip), vehicle: saline 105 % of control | dose: 4.0 mg/kg/injection, schedule: Q01DX009 (ip), vehicle: saline 104 % of control

O=C(NC1CCc2ccccc21)c1ccccc1 (stereo not drawn)
inactive: [4] 100 % of control | [5] 92 % of control | [6] 91 % of control and 95 % of control | [3] 90 % of control

CC(C)(C)NC(=O)CCC(CC(=O)NC(C)(C)C)S(=O)(=O)O (stereo not drawn)
inactive: dose: 50.0 mg/kg/injection, schedule: Q01DX009 (ip), vehicle: saline 118 % of control | dose: 100.0 mg/kg/injection, schedule: Q01DX009 (ip), vehicle: saline 112 % of control | [7] 93 % of control

O=C(Nc1ccc(N=C=S)cc1Cl)c1cc(Cl)cc(Cl)c1O
inactive: dose: 6.25 mg/kg/injection, schedule: Q01DX009 (ip), vehicle: Klucel (hydroxypropylcellulose) (HPC) 104 % of control | dose: 12.5 mg/kg/injection, schedule: Q01DX009 (ip), vehicle: Klucel (hydroxypropylcellulose) (HPC) 102 % of control and 111 % of control | [8] 110 % of control and 111 % of control | [9] 108 % of control and 118 % of control

Cc1cnnc2ccccc12
inactive: [5] 91 % of control | [6] 98 % of control | [1] 95 % of control

c1cc2cc3c(cc2cc1CC1NCCc2cc4c(cc21)OCO4)OCO3 (stereo not drawn)
inactive: [8] 97 % of control | [9] 89 % of control | [10] 94 % of control

c1ccc2cc3c(cc2c1)Cn1c-3nc2ccccc21
inactive: dose: 178.0 mg/kg/injection, schedule: Q01DX009 (ip), vehicle: saline with Tween-80 101 % of control | [7] 124 % of control | dose: 266.0 mg/kg/injection, schedule: Q01DX009 (ip), vehicle: saline with Tween-80 100 % of control | dose: 400.0 mg/kg/injection, schedule: Q01DX009 (ip), vehicle: saline with Tween-80 90 % of control | dose: 400.0 mg/kg/injection, schedule: Q01DX009 (ip), vehicle: saline 110 % of control

Cc1ccn(C(N)=O)n1
inactive: [10] 93 % of control | dose: 200.0 mg/kg/injection, schedule: Q01DX009 (ip), vehicle: Klucel (hydroxypropylcellulose) (HPC) 109 % of control

CCOC(=O)C1CN(S(=O)(=O)c2ccc(C)cc2)c2ccccc2C(=O)C1/C(=C/C(=O)OC)C(=O)OC (stereo not drawn)
inactive: dose: 100.0 mg/kg/injection, schedule: Q04DX003 (ip), vehicle: Klucel (hydroxypropylcellulose) (HPC) 92 % of control | dose: 200.0 mg/kg/injection, schedule: Q04DX003 (ip), vehicle: Klucel (hydroxypropylcellulose) (HPC) 90 % of control | dose: 400.0 mg/kg/injection, schedule: Q04DX003 (ip), vehicle: Klucel (hydroxypropylcellulose) (HPC) 88 % of control

OC(COC(c1ccccc1)(c1ccccc1)c1ccccc1)C(O)CC1SCCS1 (stereo not drawn)
inactive: [11] 107 % of control | [4] 100 % of control | [5] 103 % of control | [6] 104 % of control

Cc1cc(Cl)ccc1NC(=O)COc1ccc(Cl)cc1
inactive: [11] 104 % of control | [4] 98 % of control | [5] 88 % of control and 95 % of control | [6] 93 % of control | [1] 91 % of control

O=C(CO)c1ccc([N+](=O)[O-])cc1
inactive: dose: 3.12 mg/kg/injection, schedule: Q01DX009 (ip), vehicle: saline with Tween-80 97 % of control and 100 % of control | [4] 103 % of control | [5] 99 % of control and 106 % of control | [6] 100 % of control and 104 % of control | [1] 96 % of control and 108 % of control | [3] 93 % of control and 100 % of control

O=CN(SSN(C=O)C1CCCCC1)C1CCCCC1
inactive: [5] 110 % of control | [6] 100 % of control | [1] 98 % of control | [3] 102 % of control | dose: 200.0 mg/kg/injection, schedule: Q01DX009 (ip), vehicle: saline with Tween-80 88 % of control

Cc1ccc(S(=O)(=O)Nc2ncc([N+](=O)[O-])s2)cc1
inactive: dose: 12.5 mg/kg/injection, schedule: Q04DX003 (ip), vehicle: saline with Tween-80 102 % of control | dose: 25.0 mg/kg/injection, schedule: Q04DX003 (ip), vehicle: saline with Tween-80 109 % of control | [2] 109 % of control

COc1ccc2c3c1OC1CC(O)C=CC31CCN(C)C2 (stereo not drawn)
inactive: dose: 1.25 mg/kg/injection, schedule: Q01DX009 (ip), vehicle: saline with Tween-80 106 % of control | dose: 2.5 mg/kg/injection, schedule: Q01DX009 (ip), vehicle: saline 103 % of control | [12] 105 % of control and 113 % of control | [13] 95 % of control

Clc1ccc2c3c(cccc13)CC2
inactive: [12] 87 % of control | [13] 92 % of control | dose: 20.0 mg/kg/injection, schedule: Q01DX009 (ip), vehicle: saline with Tween-80 87 % of control | dose: 40.0 mg/kg/injection, schedule: Q01DX009 (ip), vehicle: saline with Tween-80 87 % of control

O=C1C=CC(=O)N1c1ccc2c(c1)oc(=O)c1ccccc12
inactive: [9] 87 % of control

CCOC(=O)C(C)Oc1ccc(Cl)cc1 (stereo not drawn)
inactive: dose: 50.0 mg/kg/injection, schedule: Q01DX009 (ip), vehicle: other 111 % of control | dose: 100.0 mg/kg/injection, schedule: Q01DX009 (ip), vehicle: other 104 % of control | dose: 200.0 mg/kg/injection, schedule: Q01DX009 (ip), vehicle: other 106 % of control | dose: 400.0 mg/kg/injection, schedule: Q01DX009 (ip), vehicle: other 102 % of control
